Data on eight molecules can be found in PubChem BioAssay (NCI).

Some test systems named below: NCI/ADR-RES ovarian; SF-268 CNS; U251 CNS; K-562 leukemia; SK-MEL-28 melanoma; HL-60(TB) leukemia; A498 renal; NCI-H460 lung; MOLT-4 leukemia; SW-620 colon.
Common to all, as to test: growth of human tumour cells (NCI), 48 h

Where “and” joins values, the source holds several entries; their conditions need not be identical. Identical values can stand only once.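 Briefly, cells in 96-well plates were exposed to five compound concentrations for 48 h, and endpoints were estimated by linear interpolation. Abbreviation: GI50, concentration required for 50% inhibition of growth. TGI marks complete inhibition of growth.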

As to `COc1cccc(-n2ncc3c(N/N=C/c4ccc(S(C)(=O)=O)cc4)ncnc32)c1`, the GI50 was 9.1 µM in the assay with NCI/ADR-RES ovarian; 5.98 µM in the assay on SF-268 CNS; 4.99 µM in the assay with U251 CNS; greater than 6.65 µM with K-562 leukemia; 9.26 µM with SK-MEL-28 melanoma; greater than 25 µM in the assay with HL-60(TB) leukemia. For the same molecule, the GI50 is 0.75 µM in the assay on A498 renal, 6.56 µM in the assay with NCI-H460 lung, greater than 25 µM with MOLT-4 leukemia and greater than 25 µM with SW-620 colon. In addition, the TGI with NCI/ADR-RES ovarian is greater than 25 µM; in the assay with SF-268 CNS it was 13.5 µM; with U251 CNS, 17.6 µM; with K-562 leukemia, greater than 25 µM; in the assay with SK-MEL-28 melanoma, greater than 25 µM; in the assay on HL-60(TB) leukemia, greater than 25 µM. Besides, the TGI was 11.3 µM with A498 renal, greater than 25 µM in the assay with NCI-H460 lung, greater than 25 µM with MOLT-4 leukemia and greater than 25 µM in the assay with SW-620 colon.
Take `Cc1ccc(N=Nc2c(N)nn(-c3ccccc3)c2N)cc1`: the GI50 with NCI/ADR-RES ovarian was 0.412 µM; in the assay with SF-268 CNS it was 4.7 µM; with U251 CNS, 0.762 µM; in the assay with K-562 leukemia it was 0.256 µM; with SK-MEL-28 melanoma, 8.97 µM; in the assay on HL-60(TB) leukemia, 0.638 µM. Also, the GI50 is 1.95 µM in the assay on A498 renal, 1.07 µM with NCI-H460 lung, 1.07 µM in the assay with MOLT-4 leukemia and 0.493 µM in the assay with SW-620 colon. Moreover, the TGI in the assay with NCI/ADR-RES ovarian is greater than 20.6 µM; with SF-268 CNS, greater than 100 µM; with U251 CNS, greater than 100 µM; in the assay with SK-MEL-28 melanoma, greater than 100 µM; with HL-60(TB) leukemia, greater than 21.6 µM; in the assay on A498 renal, greater than 28.7 µM. In addition, the TGI with NCI-H460 lung, with MOLT-4 leukemia and in the assay with SW-620 colon was greater than 100 µM in each case.
Take `COc1ccc2c(c1)sc1nc(-c3ccccc3)c(-c3ccc(O)c(OC)c3)n12`: the GI50 with NCI/ADR-RES ovarian is 4.55 µM; in the assay on SF-268 CNS it was 28.8 µM; in the assay on U251 CNS, 5.28 µM; in the assay on K-562 leukemia, 4.53 µM; in the assay on SK-MEL-28 melanoma, 8.99 µM; in the assay on HL-60(TB) leukemia, 5.33 µM. Also, the GI50 in the assay with A498 renal is 28.3 µM; in the assay with NCI-H460 lung it was 6.51 µM; in the assay on MOLT-4 leukemia it was 12.8 µM; with SW-620 colon, 5.15 µM. Moreover, the TGI in the assay on NCI/ADR-RES ovarian, in the assay with SF-268 CNS, with U251 CNS, with K-562 leukemia, in the assay on SK-MEL-28 melanoma and in the assay on HL-60(TB) leukemia was greater than 100 µM each time. Also, the TGI in the assay on A498 renal, with NCI-H460 lung, with MOLT-4 leukemia and with SW-620 colon was greater than 100 µM in each case.
Take `C[C@H]1[C@H](C)CC[C@]2(C(=O)O)CC[C@]3(C)C(=CC[C@@H]4[C@@]5(C)CC[C@H](OC(=O)/C=C/c6ccc(O)cc6)C(C)(C)[C@@H]5CC[C@]43C)[C@H]12`: the GI50 is 10.9 µM in the assay on NCI/ADR-RES ovarian; 3.23 µM in the assay with SF-268 CNS; 6.54 µM with U251 CNS; 7.14 µM in the assay on K-562 leukemia; 19.1 µM with SK-MEL-28 melanoma; 6.53 µM in the assay with HL-60(TB) leukemia. Moreover, the GI50 in the assay with A498 renal was 21.1 µM; in the assay with NCI-H460 lung, 7.08 µM; in the assay on MOLT-4 leukemia it was 4.42 µM; in the assay with SW-620 colon it was 9.2 µM. For the same molecule, the TGI was 26.1 µM in the assay with NCI/ADR-RES ovarian; 12 µM with SF-268 CNS; 17.2 µM in the assay on U251 CNS; 47.2 µM with K-562 leukemia; greater than 74.5 µM with SK-MEL-28 melanoma; 34.3 µM in the assay on HL-60(TB) leukemia. The TGI in the assay with A498 renal is 37.9 µM; in the assay on NCI-H460 lung it was greater than 65.9 µM; in the assay on MOLT-4 leukemia it was 49.7 µM; with SW-620 colon, 32.4 µM.
`O=C(O)c1ccc(NCc2nc3cc4ccccc4cc3[nH]2)cc1`: the TGI in the assay on NCI/ADR-RES ovarian is greater than 100 µM; in the assay with SF-268 CNS, greater than 100 µM; in the assay with U251 CNS, greater than 100 µM; in the assay with K-562 leukemia it was greater than 100 µM; with SK-MEL-28 melanoma, greater than 85.2 µM; with HL-60(TB) leukemia it was greater than 54.8 µM. For the same molecule, the TGI in the assay on A498 renal, with NCI-H460 lung, in the assay with MOLT-4 leukemia and in the assay on SW-620 colon was greater than 100 µM in each case.
`C/C(=N\NC(=O)c1ccccc1O)c1cccc(/C(C)=N/NC(=O)c2ccccc2O)n1`: the GI50 is greater than 100 µM in the assay on NCI/ADR-RES ovarian; 0.28 µM in the assay on SF-268 CNS; 2.02 µM and 0.502 µM in the assay on U251 CNS; 24.4 µM and > 100 µM with SK-MEL-28 melanoma; 0.784 µM and 0.504 µM in the assay on HL-60(TB) leukemia; 2.42 µM in the assay with A498 renal. Also, the GI50 was 0.535 µM with NCI-H460 lung, 0.424 µM with MOLT-4 leukemia and 0.632 µM with SW-620 colon. The TGI in the assay with NCI/ADR-RES ovarian is greater than 100 µM; with SF-268 CNS, 56.5 µM and > 100 µM; with U251 CNS, 15.8 µM and > 100 µM; in the assay with K-562 leukemia it was greater than 100 µM; with SK-MEL-28 melanoma, greater than 100 µM; in the assay on A498 renal, > 100 µM and 16.7 µM. Also, the TGI was 74.1 µM and > 100 µM in the assay on NCI-H460 lung; 17.5 µM and > 100 µM in the assay with MOLT-4 leukemia; greater than 100 µM with SW-620 colon.
With `O=C1c2ccccc2-c2n[nH]c3cccc1c23`, the GI50 was 30.5 µM in the assay on NCI/ADR-RES ovarian; 12 µM in the assay with SF-268 CNS; 16.6 µM with U251 CNS; 15.6 µM in the assay on K-562 leukemia; 49.3 µM in the assay with SK-MEL-28 melanoma; 9.8 µM in the assay with HL-60(TB) leukemia. The GI50 with A498 renal was 4.95 µM; with NCI-H460 lung, 8.6 µM; in the assay with MOLT-4 leukemia it was 7.85 µM. The TGI in the assay on NCI/ADR-RES ovarian was 59.2 µM and > 100 µM; in the assay with SF-268 CNS it was greater than 100 µM; in the assay on U251 CNS it was greater than 100 µM; in the assay on K-562 leukemia, greater than 100 µM; in the assay with SK-MEL-28 melanoma, greater than 100 µM; in the assay with HL-60(TB) leukemia, greater than 100 µM. In addition, the TGI in the assay on A498 renal is 35.4 µM and 52.4 µM; in the assay with NCI-H460 lung, greater than 100 µM; with MOLT-4 leukemia, greater than 100 µM; with SW-620 colon, greater than 100 µM.
As to `O=C(NC(=S)NNC(=S)NNc1ccccc1)c1ccccc1`, the GI50 was 5.26 µM with NCI/ADR-RES ovarian; 8.55 µM in the assay on SF-268 CNS; 8.36 µM in the assay with U251 CNS; 1.13 µM in the assay with K-562 leukemia; 10.6 µM in the assay on SK-MEL-28 melanoma; 3.27 µM in the assay on HL-60(TB) leukemia. The GI50 in the assay with A498 renal is 37.5 µM; with NCI-H460 lung, 3.72 µM; in the assay with MOLT-4 leukemia it was 4.81 µM; in the assay with SW-620 colon it was 4.09 µM. Also, the TGI in the assay with NCI/ADR-RES ovarian is greater than 100 µM; in the assay with SF-268 CNS, greater than 100 µM; with U251 CNS it was greater than 100 µM; in the assay with K-562 leukemia, greater than 100 µM; in the assay with SK-MEL-28 melanoma, greater than 100 µM; with HL-60(TB) leukemia, 8.52 µM. Further, the TGI is greater than 100 µM in the assay on A498 renal, greater than 100 µM in the assay on NCI-H460 lung, 49.9 µM with MOLT-4 leukemia and greater than 100 µM in the assay with SW-620 colon.
